Measurements as given in patent publication US12115207B2, “Treatment of inflammation” (Ariel Scientific Innovations Ltd., priority 2019, dated 2024).
Bridges are numbered along the chain shown (N, C = ends).

Tests used:
[1] = test system: interferon type I signaling; assay: ISRE response, HT1080 ISRE mCherry reporter cells stimulated with Poly I:C; assay type: cell-based; settings: pretreatment with 0.3 μM for 48 h, FIG. 1A, 1C
Procedure: (§1) HT1080 cells transfected with mCherry reporter under an ISRE (Interferon-Sensitive Response Element) promoter and HCT116 with Luc reporter under ISRE promoter were used. Raw 264.7 (undifferentiated murine macrophages) cell line was also used. The cells were cultured in appropriate media: Dulbecco's Modified Eagle Medium (DMEM) (Cat #41965-039, Gibco) with 4.5 g/l glucose and L-glutamine augmented with 10% FBS (Gibco, Grand Island, NY), 100 U/ml penicillin and 100 μg/ml streptomycin in a humidified atmosphere at 37° C. with 5% CO2.
HT1080 ISRE mCherry cells were plated in 6-well plates at 2×10^4 cells/well. […] Following the 48 hour incubation, 25 μg/well of Polyinosinic:polycytidylic acid (Poly I:C)—a chemical compound structurally similar to double-stranded RNA and acting via Toll Like Receptor-3 molecular pathway activation, was added for an additional 16 h incubation. After this second incubation, cells were subjected to fluorescent imaging followed by washing with 1×PBX, trypsinization and resuspension with 300 μl of 1×PBS. 200 μl of cell suspension were further loaded into 96-well black clear bottom plates. Strength of mCherry fluorescence signal was detected by an ELISA reader with multiple reads per well at 574Ex/610Em.

[2] = test system: interferon type I signaling; assay: ISRE response, HCT116 ISRE Luc reporter cells stimulated with Poly I:C; assay type: cell-based; settings: pretreatment with 0.3 μM for 48 h, FIG. 1B
Procedure: as §1
HCT116 ISRE Luc cells were plated in 96-well plates at 3×10^3 cells/well. The next day DMEM was replaced with DMEM containing 0.3 μM of ALOS4 or saline as control with/without PEI—transfection reagent, and cells continued to grow for 48 h. Following the 48 h incubation 1 μg/ml of Poly I:C was added for an additional 16 h incubation. After this second incubation the media was removed, 30 μl of Bright-Glo™ Luciferase Assay System (Promega, Cat #E2610) was added. Plate was read with plate reader on Luminescent parameters.

[3] = test system: serum cytokines; assay: Serum cytokine array after sub-chronic treatment of submissive mice; assay type: in vivo
Procedure: Submissive mice are derivates from “Sabra” strain were maintained under a 12 h light/12 h dark cycle with Purina rodent chow (Envigo, Israel) and water provided ad libitum. The animals were housed five per cage. All procedures with animals were performed after review and approval by the Institutional Animal Care and Use Committee of Ariel University.
Blood samples of submissive mice treated with control, as well as 10 and 30 mg/kg of ALOS4 were collected by terminal bleeding from the heart and centrifuged at 14,000 rpm for 20 min. Serum was removed to a new tube and stored at −80° C. for future use. Mouse XL Cytokine Array Kit (Cat #ARYO28, R&D) was used to detect the cytokines in the serum of submissive mice according to the manufacturer's instructions. Serum from treatment groups (saline, 10 and 30 mg/kg ALOS4) was added to each membrane. Streptavidin-HRP and Chemi Reagent Mix were used to detect the antibodies bound to the membrane. The membranes were then exposed (Image Quant LAS4000 mini; GE Healthcare, Milwaukee, WI, USA) and analyzed using ImageQuant TL software (GE Healthcare).

[4] = test system: crown-like structures (macrophages) in adipose tissue; assay: Crown-like structures in adipose tissue (H&E histology) of submissive mice; assay type: in vivo; settings: sub-chronic 10 and 30 mg/kg, H&E staining, FIG. 2C
Procedure: The adipose tissue of submissive mice treated with 10 and 30 mg/kg of ALOS4 were excised and fixed with 4% formalin overnight at 4° C., followed by dehydration and paraffin embedding (Cat #BN0763, Barnaor). Serial sections of 5 μm thickness were cut and placed on charged glass slides (LE-14035838925, Leica, Germany) and incubated for 1 h at 60° C. At least three slides from each adipose tissue sample with 300 μm distance between sections were collected for histological staining. Prior to Hematoxylin and Eosin (H&E), all sections were subjected to de-paraffinized and hydrated by decreasing concentrations of ethanol in deionized water.
De-paraffinized and hydrated slides were immersed in Meyer's Hematoxylin solution (Cat #HX68597049, MERCK) for 5 min, washed for 5 min with tap water, and then immersed in Eosin solution (Cat #HX6109259, MERCK) for 2 min, rehydrated and mounted with Entalain.
Macrophages were evaluated by a scoring system using light microscopy. A score of 1 is characterized by the absence of crown like structures in framed field, 10-20 crowns characterize the score of 2, a score of 3—20-30 crown like structures, a score of 4—30-40 crowns and a score of 5—abundant crowns (40-50).

[5] = test system: Raw267.4 cells; assay: Nitric oxide level assay, LPS-induced macrophage differentiation; assay type: cell-based, mouse; settings: FIG. 2D
Procedure: Ability of ALOS4 to affect macrophage differentiation to pro- and anti-inflammatory macrophages was evaluated on mouse monocyte macrophages (Raw267.4) using the nitric oxide level assay. Cells were plated at a density of 1×10^5 cells/ml in 12 well plates for 12 h, followed by treatment with LPS (200 ng/ml) and ALOS4 (0.3 and 30 μM). Nitric oxide production of monocyte differentiation to pro-inflammatory M1 was detected with Griess reaction kit (Cat #G2930, Promega) according to the protocol. The absorbance was read at 540 nm with ELISA plate reader (Tecan infinite M200pro, Switzerland) and nitric oxide concentration was calculated using the Nitrite Standard Reference Curve.

[6] = 10 and 30 mg/kg i.v., every second day within 10 days, FIG. 2A

## H-cycl (Cys-Ser-Ser-Ala-Gly-Ser-Leu-Phe-Cys)-OH (H-CSSAGSLFC-OH; disulfide 1-9 (inferred)) [ALOS4]
[1]
  ability of cells to induce interferon type I signaling in response to Poly I:C (mCherry fluorescence): suppressed
[2]
  ability of cells to induce interferon type I signaling in response to Poly I:C (luciferase): suppressed
[3]; [6]
  IL-1α/IL-1F1 in blood: did not change
  total interleukins in blood as compared to the control group: downregulation
[3]; sub-chronic 10 and 30 mg/kg, FIG. 2B
  pro-inflammatory markers (Jak-STAT signaling pathway) in serum: strong tendency toward down-regulation
[4]
  frequency of crown-like structures in fat pads: a decrease in frequency was observed
[5]; LPS-induced, one-way ANOVA p<0.01 and p<0.001
  nitric oxide (indicator of differentiation to pro-inflammatory macrophages): significant dose-dependent decrease
[5]; Raw267.4 cells, LPS 200 ng/ml, 0.3 and 30 μM for 24 hours
  differentiation of macrophages to pro-inflammatory M1: inhibited differentiation of the macrophages to pro-inflammatory M1 in a dose dependent manner
